Assays:
Type in all cases: in vivo
[1] = tested on: ryegrass, Italian (Italian ryegrass, Lolium multiflorum); experiment: Test C postemergence, plant response rating; conditions: for Ryegrass, Italian plant response rating: scale 0 to 100 (0 no effect, 100 complete control)
Summary of the method: (§1)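 Both timings shared one formulation, a non-phytotoxic solvent mixture with surfactant, and a greenhouse period of 13 to 15 d. Preemergence used seeded loam/sand or silt loam soil, postemergence used 2 to 18 cm plants; visual ratings ran from 0 (no effect) to 100 (complete control).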

[2] = tested on: galium (catchweed bedstraw, Galium aparine); experiment: Test C postemergence, plant response rating; conditions: for Galium plant response rating: scale 0 to 100 (0 no effect, 100 complete control)
Summary of the method: as §1

[3] = tested on: wheat (winter wheat, Triticum aestivum); experiment: Test C postemergence, plant response rating; conditions: for Wheat plant response rating: 125 g ai/ha, scale 0 to 100 (0 no effect, 100 complete control)
Summary of the method: as §1

[4] = tested on: chickweed (common chickweed, Stellaria media); experiment: Test C postemergence, plant response rating; conditions: for Chickweed plant response rating: scale 0 to 100 (0 no effect, 100 complete control)
Summary of the method: as §1

[5] = tested on: blackgrass (Alopecurus myosuroides); experiment: Test C postemergence, plant response rating; conditions: for Plant response rating, Blackgrass: scale 0 to 100; for Blackgrass plant response rating: scale 0 to 100 (0 no effect, 100 complete control)
Summary of the method: as §1

[6] = tested on: soybean (Glycine max); experiment: Test C postemergence, plant response rating; conditions: for Soybean plant response rating: scale 0 to 100 (0 no effect, 100 complete control)
Summary of the method: as §1

[7] = tested on: oilseed rape (Brassica napus); experiment: Test C postemergence, plant response rating; conditions: for Oilseed Rape plant response rating: scale 0 to 100 (0 no effect, 100 complete control)
Summary of the method: as §1

[8] = tested on: waterhemp (common waterhemp, Amaranthus rudis); experiment: Test C postemergence, plant response rating; conditions: for Waterhemp plant response rating: 125 g ai/ha, scale 0 to 100 (0 no effect, 100 complete control)
Summary of the method: as §1

[9] = tested on: foxtail, giant (giant foxtail, Setaria faberii); experiment: Test C postemergence, plant response rating; conditions: for Foxtail, Giant plant response rating: scale 0 to 100 (0 no effect, 100 complete control)
Summary of the method: as §1

[10] = tested on: Italian ryegrass (Lolium multiflorum); experiment: Test A postemergence, visual injury rating; conditions: 0 to 100 scale, 0 is no effect, 100 is complete control, approximately 10 days
Summary of the method: (§2)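 Scoring: eye-based comparison with untreated controls, 0 for no effect through 100 for complete control, at about day 10. Treatments: directed soil spray preemergence; foliar spray postemergence on 2–10 cm plants at the one- to two-leaf stage. Medium: loam soil with sand.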

[11] = tested on: barnyardgrass (Echinochloa crus-galli); experiment: Test A postemergence, visual injury rating; conditions: 0 is no effect, 100 is complete control; for Barnyardgrass plant response rating: 0 to 100 scale, approximately 10 days
Summary of the method: as §2

[12] = tested on: giant foxtail (Setaria faberii); experiment: Test A postemergence, visual injury rating; conditions: 0 is no effect, 100 is complete control; for Foxtail, Giant plant response rating: 0 to 100 scale, approximately 10 days
Summary of the method: as §2

[13] = tested on: galium (catchweed bedstraw, Galium aparine); experiment: Test A postemergence, visual injury rating; conditions: 0 is no effect, 100 is complete control; for Galium plant response rating: 0 to 100 scale, approximately 10 days
Summary of the method: as §2

[14] = tested on: wheat (Triticum aestivum); experiment: Test A postemergence, visual injury rating; conditions: 0 to 100 scale, 0 is no effect, 100 is complete control, approximately 10 days
Summary of the method: as §2

[15] = tested on: blackgrass (Alopecurus myosuroides); experiment: Test A postemergence, visual injury rating; conditions: 0 is no effect, 100 is complete control; for Blackgrass plant response rating: 0 to 100 scale, approximately 10 days
Summary of the method: as §2

[16] = tested on: pigweed (Amaranthus retroflexus); experiment: Test A postemergence, visual injury rating; conditions: 0 to 100 scale, 0 is no effect, 100 is complete control, approximately 10 days
Summary of the method: as §2

[17] = tested on: kochia (Kochia scoparia); experiment: Test A postemergence, visual injury rating; conditions: 0 to 100 scale, 0 is no effect, 100 is complete control, approximately 10 days
Summary of the method: as §2

[18] = tested on: ragweed (common ragweed, Ambrosia elatior); experiment: Test A postemergence, visual injury rating; conditions: 0 to 100 scale, 0 is no effect, 100 is complete control, approximately 10 days
Summary of the method: as §2

[19] = tested on: corn (Zea mays); experiment: Test A postemergence, visual injury rating; conditions: 0 is no effect, 100 is complete control; for Corn plant response rating: 0 to 100 scale, approximately 10 days
Summary of the method: as §2

In the case of O=C(CCCCC(F)(F)F)c1c(Br)cccc1Oc1ncc(Cl)cn1 [Compound 82], the “Plant response rating, Ryegrass, Italian” value ([1]; 16 g ai/ha, scale of 0 to 100) is reported as 5, the “Plant response rating, Ryegrass, Italian” value ([1]; 31 g ai/ha, scale 0 to 100) is reported as 15 and the “Ryegrass, Italian plant response rating” value ([1]; 62 g ai/ha) is reported as 20. For the same compound, the “Ryegrass, Italian plant response rating” value ([1]; 125 g ai/ha) was 25, the “Plant response rating, Galium” value ([2]; 16 g ai/ha, scale of 0 to 100) was 50 and the “Plant response rating, Galium” value ([2]; 31 g ai/ha, scale 0 to 100) was 75. The “Galium plant response rating” value ([2]; 62 g ai/ha) was 85, the “Galium plant response rating” value ([2]; 125 g ai/ha) was 90 and the “Plant response rating, Wheat” value ([3]; 16 g ai/ha, scale of 0 to 100) was 5. The “Plant response rating, Wheat” value ([3]; 31 g ai/ha, scale 0 to 100) was 10, the “Wheat plant response rating” value [3] was 30 and the “Plant response rating, Chickweed” value ([4]; 16 g ai/ha, scale of 0 to 100) was 55. The “Plant response rating, Chickweed” value ([4]; 31 g ai/ha, scale 0 to 100) was 85, the “Chickweed plant response rating” value ([4]; 62 g ai/ha) was 90 and the “Chickweed plant response rating” value ([4]; 125 g ai/ha) was 90. For the same compound, the “Plant response rating, Blackgrass” value ([5]; 16 g ai/ha) was 30, the “Plant response rating, Blackgrass” value ([5]; 31 g ai/ha) was 35 and the “Blackgrass plant response rating” value ([5]; 62 g ai/ha) was 40. The “Blackgrass plant response rating” value ([5]; 125 g ai/ha) was 45, the “Plant response rating, Soybean” value ([6]; 16 g ai/ha, scale of 0 to 100) was 25 and the “Plant response rating, Soybean” value ([6]; 31 g ai/ha, scale 0 to 100) was 60. For the same compound, the “Soybean plant response rating” value ([6]; 62 g ai/ha) was 35, the “Soybean plant response rating” value ([6]; 125 g ai/ha) was 40 and the “Plant response rating, Oilseed Rape” value ([7]; 16 g ai/ha, scale of 0 to 100) was 70. For the same compound, the “Plant response rating, Oilseed Rape” value ([7]; 31 g ai/ha, scale 0 to 100) was 95, the “Oilseed Rape plant response rating” value ([7]; 62 g ai/ha) was 95 and the “Oilseed Rape plant response rating” value ([7]; 125 g ai/ha) was 95. For the same compound, the “Plant response rating, Waterhemp” value ([8]; 16 g ai/ha, scale of 0 to 100) was 65, the “Plant response rating, Waterhemp” value ([8]; 31 g ai/ha, scale 0 to 100) was 95 and the “Waterhemp plant response rating” value [8] was 95. For the same compound, the “Plant response rating, Foxtail, Giant” value ([9]; 16 g ai/ha, scale of 0 to 100) was 10, the “Plant response rating, Foxtail, Giant” value ([9]; 31 g ai/ha, scale 0 to 100) was 10 and the “Foxtail, Giant plant response rating” value ([9]; 62 g ai/ha) was 10. For the same compound, the “Foxtail, Giant plant response rating” value ([9]; 125 g ai/ha) was 20, the “Ryegrass, Italian plant response rating” value ([10]; 31 g ai/ha) was 40 and the “Ryegrass, Italian plant response rating” value ([10]; 125 g ai/ha) was 60. For the same compound, the “Barnyardgrass plant response rating” value ([11]; 31 g ai/ha) was 30, the “Barnyardgrass plant response rating (0 to 100 scale)” value ([11]; 125 g ai/ha) was 100 and the “Foxtail, Giant plant response rating” value ([12]; 31 g ai/ha) was 30. The “Foxtail, Giant plant response rating (0 to 100 scale)” value ([12]; 125 g ai/ha) was 100, the “Galium plant response rating” value ([13]; 31 g ai/ha) was 90 and the “Galium plant response rating (0 to 100 scale)” value ([13]; 125 g ai/ha) was 100. For the same compound, the “Wheat plant response rating” value ([14]; 31 g ai/ha) was 10, the “Wheat plant response rating” value ([14]; 125 g ai/ha) was 30 and the “Blackgrass plant response rating” value ([15]; 31 g ai/ha) was 40. For the same compound, the “Blackgrass plant response rating (0 to 100 scale)” value ([15]; 125 g ai/ha) was 40, the “Pigweed plant response rating” value ([16]; 31 g ai/ha) was 100 and the “Pigweed plant response rating” value ([16]; 125 g ai/ha) was 100. The “Kochia plant response rating” value ([17]; 31 g ai/ha) was 80, the “Kochia plant response rating” value ([17]; 125 g ai/ha) was 100 and the “Ragweed plant response rating” value ([18]; 31 g ai/ha) was 40. The “Ragweed plant response rating” value ([18]; 125 g ai/ha) was 40, the “Corn plant response rating” value ([19]; 31 g ai/ha) was 20 and the “Corn plant response rating (0 to 100 scale)” value ([19]; 125 g ai/ha) was 30.
For FC(F)(F)CCCc1c(Br)cccc1Oc1ncc(Cl)cn1 [Compound 89], the “Plant response rating, Ryegrass, Italian” value ([1]; 16 g ai/ha, scale of 0 to 100) was 5, the “Plant response rating, Ryegrass, Italian” value ([1]; 31 g ai/ha, scale 0 to 100) was 5 and the “Ryegrass, Italian plant response rating” value ([1]; 62 g ai/ha) was 5. The “Ryegrass, Italian plant response rating” value ([1]; 125 g ai/ha) was 10, the “Plant response rating, Galium” value ([2]; 16 g ai/ha, scale of 0 to 100) was 75 and the “Plant response rating, Galium” value ([2]; 31 g ai/ha, scale 0 to 100) was 75. For the same compound, the “Galium plant response rating” value ([2]; 62 g ai/ha) was 80, the “Galium plant response rating” value ([2]; 125 g ai/ha) was 90 and the “Plant response rating, Wheat” value ([3]; 16 g ai/ha, scale of 0 to 100) was 0. The “Plant response rating, Wheat” value ([3]; 31 g ai/ha, scale 0 to 100) was 10, the “Wheat plant response rating” value [3] was 15 and the “Plant response rating, Chickweed” value ([4]; 16 g ai/ha, scale of 0 to 100) was 65. The “Plant response rating, Chickweed” value ([4]; 31 g ai/ha, scale 0 to 100) was 95, the “Chickweed plant response rating” value ([4]; 62 g ai/ha) was 85 and the “Chickweed plant response rating” value ([4]; 125 g ai/ha) was 100. For the same compound, the “Plant response rating, Blackgrass” value ([5]; 16 g ai/ha) was 10, the “Plant response rating, Blackgrass” value ([5]; 31 g ai/ha) was 15 and the “Blackgrass plant response rating” value ([5]; 62 g ai/ha) was 30. The “Blackgrass plant response rating” value ([5]; 125 g ai/ha) was 45, the “Plant response rating, Soybean” value ([6]; 16 g ai/ha, scale of 0 to 100) was 35 and the “Plant response rating, Soybean” value ([6]; 31 g ai/ha, scale 0 to 100) was 40. For the same compound, the “Soybean plant response rating” value ([6]; 62 g ai/ha) was 65, the “Soybean plant response rating” value ([6]; 125 g ai/ha) was 70 and the “Plant response rating, Oilseed Rape” value ([7]; 16 g ai/ha, scale of 0 to 100) was 60. For the same compound, the “Plant response rating, Oilseed Rape” value ([7]; 31 g ai/ha, scale 0 to 100) was 95, the “Oilseed Rape plant response rating” value ([7]; 62 g ai/ha) was 90 and the “Oilseed Rape plant response rating” value ([7]; 125 g ai/ha) was 100. For the same compound, the “Plant response rating, Waterhemp” value ([8]; 16 g ai/ha, scale of 0 to 100) was 70, the “Plant response rating, Waterhemp” value ([8]; 31 g ai/ha, scale 0 to 100) was 70 and the “Waterhemp plant response rating” value [8] was 95. The “Plant response rating, Foxtail, Giant” value ([9]; 16 g ai/ha, scale of 0 to 100) was 10, the “Plant response rating, Foxtail, Giant” value ([9]; 31 g ai/ha, scale 0 to 100) was 10 and the “Foxtail, Giant plant response rating” value ([9]; 62 g ai/ha) was 10. For the same compound, the “Foxtail, Giant plant response rating” value ([9]; 125 g ai/ha) was 20, the “Ryegrass, Italian plant response rating” value ([10]; 31 g ai/ha) was 10 and the “Ryegrass, Italian plant response rating” value ([10]; 125 g ai/ha) was 30. The “Barnyardgrass plant response rating” value ([11]; 31 g ai/ha) was 30, the “Barnyardgrass plant response rating” value ([11]; 125 g ai/ha) was 90 and the “Foxtail, Giant plant response rating” value ([12]; 31 g ai/ha) was 20. The “Foxtail, Giant plant response rating” value ([12]; 125 g ai/ha) was 50, the “Galium plant response rating” value ([13]; 31 g ai/ha) was 30 and the “Galium plant response rating” value ([13]; 125 g ai/ha) was 80. For the same compound, the “Wheat plant response rating” value ([14]; 31 g ai/ha) was 0, the “Wheat plant response rating” value ([14]; 125 g ai/ha) was 20 and the “Blackgrass plant response rating” value ([15]; 31 g ai/ha) was 20. For the same compound, the “Blackgrass plant response rating” value ([15]; 125 g ai/ha) was 60, the “Pigweed plant response rating” value ([16]; 31 g ai/ha) was 90 and the “Pigweed plant response rating” value ([16]; 125 g ai/ha) was 90. The “Kochia plant response rating” value ([17]; 31 g ai/ha) was 80, the “Kochia plant response rating” value ([17]; 125 g ai/ha) was 90 and the “Ragweed plant response rating” value ([18]; 31 g ai/ha) was 10. For the same compound, the “Ragweed plant response rating” value ([18]; 125 g ai/ha) was 10, the “Corn plant response rating” value ([19]; 31 g ai/ha) was 10 and the “Corn plant response rating” value ([19]; 125 g ai/ha) was 20.
